Assay results as given in patent US20230372290A1, “FORMULATIONS COMPRISING BOTANICAL EXTRACTS” (APEX BIOTECH RESEARCH PTY LTD, priority 2020, published 2023).
Where two headings read alike, the source gives them in different places.

How the values were obtained:
ACE2 mRNA = assay type: cell-based, African green monkey (Chlorocebus sp)
SARS-CoV-2 (Vic 01) = experiment: microbe, parasite or virus in culture; assay type: cell-based; conditions: for Microscopy at day 3: Vero cells, 1000 TCID50 SARS-CoV-2, cytopathic effect (CPE)
ACE2 protein = ACE2 protein by ELISA in cell lysate of CACO-2 cells; assay type: cell-based, human; conditions: 72 hours, 1 μM daily for three days, compared to UP-P, FIG. 3
Experimental: FIG. 3 illustrates the expression of ACE2 protein by ELISA in cell lysate of CACO-2 cells 72 hours following treatment with andrographolide (UP-A) and piceid (UP-P) (1 μM) daily for three days.
For ACE2 protein measurements, Caco-2 cells were scraped from each well in ice-cold RIPA buffer for ELISA assays. To determine the quantity of ACE2 in Caco-2 cells an Angiotensin Converting Enzyme 2 (ACE2) ELISA Kit (CusaBio, Wuhan, Hubei, China, catalogue number: CSB-E17204m) was performed on samples as per the manufacturers protocol. Briefly, each of the samples was loaded with Sample Diluent in duplicate wells. A standard curve was prepared from a Standard solution provided. 0, 6.25, 12.5, 25, 50, 100, 200 and 400 μg/mL of the standard was added to a series of wells in duplicate. The final volume of each standard well was made up to […] with the addition of Sample Diluent. […] of provided Biotin-antibody (1×) was added to each well and then after washing steps, […] of HRP-avidin antibody (1×). The plate was put on shake mode on a CLARIOstarPlus Multi-Mode Microplate Reader (BMG Labtech, Ortenberg, Germany) to ensure proper mixing before being scanned at Ex/Em=570/540 nm in an end point mode.

M^pro = M^pro (Severe acute respiratory syndrome coronavirus 2, UniProt P0DTD1); experiment: Initial in silico and enzymology studies targeting M^pro

## C=C1CCC2[C@@](C)(CC[C@@H](O)[C@@]2(C)CO)C1C/C=C1/C(=O)OCC1O (stereo partly drawn) [Andrographis, 3-[2-[Decahydro-6-hydroxy-5-(hydroxymethyl)-5,8a-dimethyl-2-methylene-1-napthalenyl]ethylidene]dihydro-4-hydroxy-2(3H)-furanone]
ACE2 mRNA; FIG. 2, decreasing at 48 hours and diminishing at 72 hours
  time of maximal effect on ACE2 mRNA expression: 24 h
ACE2 mRNA; FIG. 2 dose response
  concentration below which loss of efficacy is observed (ACE2 mRNA): below 0.5 μM
ACE2 mRNA; FIG. 2 dose response, no substantial increase in activity at higher doses
  concentration achieving the maximal response (ACE2 mRNA): 1 µM
ACE2 mRNA; Vero (AGM) cells, 24 hours, FIG. 2
  ACE2 mRNA expression: decreasing ACE2 mRNA expression
ACE2 mRNA; Vero (AGM) cells, 48 h, FIG. 1
  ACE2 mRNA expression: significantly decreased
ACE2 mRNA; Vero (AGM) cells, 48 h, FIG. 1, lowest dose
  dose with the greatest effect on ACE2 mRNA expression: 1 µM
SARS-CoV-2 (Vic 01); Severe acute respiratory syndrome coronavirus 2, Vero, 72 h, read-out: IC50 calculated from virus titration (TCID50 data)
  IC50: 3.25 µM
SARS-CoV-2 (Vic 01); alone and in combination with piceid and ursolic acid
  antiviral activity against SARS-CoV-2: showed antiviral activity
SARS-CoV-2 (Vic 01); drug conc. 0.078125 μM
  Microscopy at day 3: CPE
SARS-CoV-2 (Vic 01); drug conc. 0.15625 μM
  Microscopy at day 3: CPE
SARS-CoV-2 (Vic 01); drug conc. 0.3125 μM
  Microscopy at day 3: CPE
SARS-CoV-2 (Vic 01); drug conc. 0.625 μM
  Microscopy at day 3: CPE
SARS-CoV-2 (Vic 01); drug conc. 1.25 μM
  Microscopy at day 3: CPE
SARS-CoV-2 (Vic 01); drug conc. 2.5 μM
  Microscopy at day 3: CPE
SARS-CoV-2 (Vic 01); drug conc. 5 μM
  Microscopy at day 3: CPE
SARS-CoV-2 (Vic 01); drug conc. 10 μM
  Microscopy at day 3: CPE
SARS-CoV-2 (Vic 01); drug conc. 20 μM
  Microscopy at day 3: CPE
SARS-CoV-2 (Vic 01); drug conc. 40 μM
  Microscopy at day 3: Toxicity
ACE2 protein
  ACE2 protein levels by ELISA: decreased

## OCC1O[C@@H](Oc2cc(O)cc(/C=C/c3ccc(O)cc3)c2)C(O)C(O)[C@@H]1O (stereo partly drawn) [Piceid, 2-[3-Hydroxy-5-[(E)-2-(4-hydroxyphenyl)ethenyl]phenoxy]-6-(hydroxymethyl)oxane-3,4,5-triol]
ACE2 mRNA; Vero (AGM) cells, 48 h, FIG. 1
  ACE2 mRNA expression: no discernible effect
SARS-CoV-2 (Vic 01); drug conc. 0.078125 μM
  Microscopy at day 3: CPE
SARS-CoV-2 (Vic 01); drug conc. 0.15625 μM
  Microscopy at day 3: CPE
SARS-CoV-2 (Vic 01); drug conc. 0.3125 μM
  Microscopy at day 3: CPE
SARS-CoV-2 (Vic 01); drug conc. 0.625 μM
  Microscopy at day 3: CPE
SARS-CoV-2 (Vic 01); drug conc. 1.25 μM
  Microscopy at day 3: CPE
SARS-CoV-2 (Vic 01); drug conc. 2.5 μM
  Microscopy at day 3: CPE
SARS-CoV-2 (Vic 01); drug conc. 5 μM
  Microscopy at day 3: CPE
SARS-CoV-2 (Vic 01); drug conc. 10 μM
  Microscopy at day 3: CPE
SARS-CoV-2 (Vic 01); drug conc. 20 μM
  Microscopy at day 3: CPE
SARS-CoV-2 (Vic 01); drug conc. 40 μM
  Microscopy at day 3: CPE
M^pro
  candidate targeting M^pro: promising candidate

## C[C@H]1[C@H](C)CC[C@]2(C(=O)O)CC[C@]3(C)C(=CC[C@@H]4[C@@]5(C)CC[C@H](O)C(C)(C)[C@@H]5CC[C@]43C)[C@H]12 [Ursolic acid, (1S,2R,4aS,6aR,6aS,6bR,8aR,10S,12aR,14bS)-10-Hydroxy-1,2,6a,6b,9,9,12a-heptamethyl-2,3,4,5,6,6a,7,8,8a,10,11,12,13,14b-tetradecahydro-1H-picene-4a-carboxylic acid]
ACE2 mRNA
  ACE2 mRNA expression: decreased ACE2 mRNA expression to a lesser extent in a dose dependent manner
SARS-CoV-2 (Vic 01); drug conc. 0.078125 μM
  Microscopy at day 3: CPE
SARS-CoV-2 (Vic 01); drug conc. 0.15625 μM
  Microscopy at day 3: CPE
SARS-CoV-2 (Vic 01); drug conc. 0.3125 μM
  Microscopy at day 3: CPE
SARS-CoV-2 (Vic 01); drug conc. 0.625 μM
  Microscopy at day 3: CPE
SARS-CoV-2 (Vic 01); drug conc. 1.25 μM
  Microscopy at day 3: CPE
SARS-CoV-2 (Vic 01); drug conc. 2.5 μM
  Microscopy at day 3: CPE
SARS-CoV-2 (Vic 01); drug conc. 5 μM
  Microscopy at day 3: CPE
SARS-CoV-2 (Vic 01); drug conc. 10 μM
  Microscopy at day 3: CPE
SARS-CoV-2 (Vic 01); drug conc. 20 μM
  Microscopy at day 3: CPE
SARS-CoV-2 (Vic 01); drug conc. 40 μM
  Microscopy at day 3: Toxicity
